Tests used:
[1] = molecular target: T1, PtoMBD (Picrophilus oshimae, UniProt Q6L1T9, D309T); test: radio-TLC activity assay; type: biochemical; details: labelled compound; 1 μM GGPP, 5 mM MgCl2, sodium acetate pH 5.5, 60 °C
T1 construct: gene PTO0478

[2] = molecular target: T2, PtoMBD (Picrophilus oshimae, UniProt Q6L1T9, R218A/R220A); test: radio-TLC activity assay; type: biochemical; details: labelled compound; 1 μM GGPP, 5 mM MgCl2, sodium acetate pH 5.5, 60 °C
T2 construct: gene PTO0478

[3] = molecular target: T3, PtoMBD (Picrophilus oshimae, UniProt Q6L1T9, D309N); test: radio-TLC activity assay; type: biochemical; details: labelled compound; 1 μM GGPP, 5 mM MgCl2, sodium acetate pH 5.5, 60 °C
T3 construct: gene PTO0478

[4] = molecular target: T4, PtoMBD (Picrophilus oshimae, UniProt Q6L1T9); test: X-ray crystal structure, […] Å; type: binding; details: endogenous E. coli ligand, identity assumed from density (oleic acid fitted), low occupancy, subunit A only; cavity overlapping ATP site of DMD
T4 construct: gene PTO0478
T4 sequence (Q6L1T9 1-349): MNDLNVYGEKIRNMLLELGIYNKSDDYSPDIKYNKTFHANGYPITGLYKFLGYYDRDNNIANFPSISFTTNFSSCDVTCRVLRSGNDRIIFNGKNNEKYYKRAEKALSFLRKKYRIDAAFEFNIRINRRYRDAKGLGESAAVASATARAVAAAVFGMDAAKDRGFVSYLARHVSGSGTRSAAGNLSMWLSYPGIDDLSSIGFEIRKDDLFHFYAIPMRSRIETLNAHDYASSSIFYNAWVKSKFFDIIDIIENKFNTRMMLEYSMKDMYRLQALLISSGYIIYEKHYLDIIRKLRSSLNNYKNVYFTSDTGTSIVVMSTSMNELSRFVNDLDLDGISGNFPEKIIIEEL

[5] = molecular target: the molecule itself; test: SEC; HiLoad 16/600 Superdex 200 prep grade, 20 mM sodium phosphate pH 7.4, 500 mM NaCl, 0.6 ml/min; calibrated with gel filtration markers

T1 sequence (Q6L1T9 whole entry D309T): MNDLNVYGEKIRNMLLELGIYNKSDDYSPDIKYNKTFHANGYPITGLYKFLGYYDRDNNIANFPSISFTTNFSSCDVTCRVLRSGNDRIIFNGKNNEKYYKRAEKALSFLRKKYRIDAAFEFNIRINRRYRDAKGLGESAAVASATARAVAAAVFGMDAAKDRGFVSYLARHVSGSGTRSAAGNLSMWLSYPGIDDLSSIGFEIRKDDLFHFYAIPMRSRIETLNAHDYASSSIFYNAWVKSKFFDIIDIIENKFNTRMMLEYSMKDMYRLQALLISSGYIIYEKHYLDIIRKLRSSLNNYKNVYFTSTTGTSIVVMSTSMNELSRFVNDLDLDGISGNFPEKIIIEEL
T3 sequence (Q6L1T9 whole entry D309N): as the sequence (Q6L1T9 whole entry D309T) above, with T309N counted along it
T2 sequence (Q6L1T9 whole entry R218A/R220A): as the sequence (Q6L1T9 whole entry D309T) above, with R218A, R220A, T309D counted along it

C[C@@](CCOP(=O)(O)O)(CC(=O)O)OP(=O)(O)O [MVA3,5BP]
MBD activity [1]: mutants D309T and D309N leads to the complete loss of MBD activity | MBD activity [2]: the R218A/R220A double mutant was as active as the WT | MBD activity [3]: mutants D309T and D309N leads to the complete loss of MBD activity

CCCCCCCC/C=C\CCCCCCCC(=O)O [OLA]
X-ray crystal structure, 2.2 Å [4]: Oleic acid (OLA) fitted well in the electron density

B1: Picrophilus torridus mevalonate 3,5-bisphosphate decarboxylase (enzyme)
chain: T4 sequence (Q6L1T9 1-349)
notes: Mevalonate 3,5-bisphosphate decarboxylase of Picrophilus torridus, gene pto0478; calculated mass of the tagged protein 42,186 Da; also called PtoMBD; MBD; source: E. coli BL21(DE3), pET28a(+), purified (heat treatment, Ni-NTA, HP-Q for crystallization; heat treatment and Ni-NTA only for size-exclusion chromatography); not shown: polyhistidine, N-terminal, kept
stoichiometry N [5]: 2
